{"source": "patent US20050142130A1", "about": "“Use of angiotensin-(1-7) for preventing and/or reducing the formation of neointima” (priority 2001, published 2005)", "key": {"[1]": {"assay": "in vivo", "conditions": "male, Wistar, rat, iv, 24 ug/kg/hour", "protocol": "(§1) Twenty-eight male Wistar rats (Harlan, Horst, Netherlands) weighing 450 to 520 grams were anesthetized with O2, N2O and isofluorane (Abbot B.V., Hoofddorp, Netherlands). A pre-mounted 2.5×9 mm BeStent™ 2 (Medtronic-Bakken Research, Maastricht, the Netherlands) was implanted in the abdominal aorta as previously described, or a sham operation was performed.^35 Subsequently, an osmotic minipump with a pumping rate of 0.25 μl/hour, lasting for 28 days (Model 2004, Alzet, Charles River Nederland, Maastricht, Netherlands), was implanted subcutaneously for drug delivery via a catheter in the jugular vein. Stented rats received angiotensin-(1-7) (Bachem, Weil am Rhein, Germany) (24 μg/kg/hour) (n=7) or saline (0.25 μl/hour) (n=10). Sham-operated rats received saline infusion (n=6). […] At this concentration, Ang-(1-7) binds to the Mas receptor and has subsequent functional effects. Five rats died peri-operatively due to rupture of the aorta."}, "[2]": {"tested_on": "stented rat abdominal aorta (neointimal formation)", "assay": "Rat abdominal aorta stenting model, histomorphometry and histology after 28 days", "assay_type": "in vivo, Wistar rats", "protocol": "Twenty-eight male Wistar rats (Harlan, Horst, Netherlands) weighing 450 to 520 grams were anesthetized with O2, N2O and isofluorane (Abbot B.V., Hoofddorp, Netherlands). A pre-mounted 2.5×9 mm BeStentTM 2 (Medtronic-Bakken Research, Maastricht, the Netherlands) was implanted in the abdominal aorta as previously described, or a sham operation was performed.^35 Subsequently, an osmotic minipump with a pumping rate of 0.25 μl/hour, lasting for 28 days (Model 2004, Alzet, Charles River Nederland, Maastricht, Netherlands), was implanted subcutaneously for drug delivery via a catheter in the jugular vein. […] rats received angiotensin-(1-7) (Bachem, Weil am Rhein, Germany) (24 μg/kg/hour) (n=7) or saline (0.25 μl/hour) (n=10). Sham-operated rats received saline infusion (n=6). […] At this concentration, Ang-(1-7) binds to the Mas receptor and has subsequent functional effects. Five rats died peri-operatively due to rupture of the aorta. After 28 days, the animals were anesthetized and heparinized with 500 IU intravenously (Leo Pharma B.V., Breda, Netherlands). The abdominal aortas were subsequently harvested, fixed, embedded in methylmetacrylate, sectioned and stained for histological analysis. The endothelial function was tested in isolated thoracic aortic rings. Histomorphometrical analysis was performed on elastica van Gieson-stained sections by measurements of the proximal, middle and distal parts of each stent. To assess neointimal formation, areas within the external elastic lamina (EEL), internal elastic lamina (IEL) and lumen were measured by using digital morphometry. The neointimal area, media area, lumen area and the percentage of stenosis were calculated. The injury and inflammation scores were assessed as described by Schwartz et al. and Kornowski et al. Briefly, each strut was assigned a nominal score from 0 to 3 dependent upon the severity of the injury or inflammation. The average score is calculated by dividing the sum of scores by the number of struts. Total cell density and polymorphonuclear leukocyte density were determined in hematoxylin-eosin stained sections at ×400 magnification and expressed as ×100/mm^2. To assess a single measurement for each stent, the mean values of the proximal, middle and distal parts were calculated. Data are expressed as mean value±standard error of the mean (SEM). Statistical analysis between groups was performed by a student's t-test. Differences in dose-response curves between groups were tested by ANOVA for repeated measures using Greenhouse-Geisser correction for asphericity. Values of p=0.05 were considered statistically significant. For statistical analysis, SPSS software (Chicago, USA) was used."}, "[3]": {"tested_on": "thoracic aortic rings", "assay": "Organ bath studies with isolated thoracic aortic rings (endothelial function) from stented, treated rats", "assay_type": "in vivo, Wistar rats", "protocol": "as §1, with “BeStentTM” for “BeStent™”, “Stented” left out, “aorta. After 28 days, the animals were anesthetized and heparinized with 500 IU intravenously (Leo Pharma B.V., Breda, Netherlands). The abdominal aortas were subsequently harvested, fixed, embedded in methylmetacrylate, sectioned and stained for histological analysis. […] The endothelium-dependant vasodilatation was assessed by a cumulative dose of meatcholine (10 nM to 10 mM). […] Data are expressed as mean value±standard error of the mean (SEM). […]” for “aorta.”"}, "[4]": {"conditions": "stented rats, 24 μg/kg/hour, mean ± SEM"}}, "note": "“Also recorded” adds a separate entry of the source."}
{"smiles": "CC[C@H](C)[C@H](NC(=O)[C@H](Cc1ccc(O)cc1)NC(=O)[C@@H](NC(=O)[C@H](CCCNC(=N)N)NC(=O)[C@@H](N)CC(=O)O)C(C)C)C(=O)N[C@@H](Cc1c[nH]cn1)C(=O)N1CCC[C@H]1C(=O)O", "note": "[Ang-(1-7), angiotensin-(1-7)]", "values": [{"measurement": "level at time molar", "setting": "[1]", "value": "~0.918", "unit": "nM"}, {"measurement": "Neointimal Area", "setting": "[2]; [4]", "value": "0.51 ± 0.05", "unit": "mm^2"}, {"measurement": "Neointimal Thickness", "setting": "[2]; [4]", "value": "112 ± 8", "unit": "μm"}, {"measurement": "Percentage Stenosis", "setting": "[2]; [4]", "value": "10.4 ± 1.0", "unit": "%"}, {"measurement": "IEL Area, change with treatment", "setting": "[2]; vs saline control", "value": "−2", "unit": "%"}, {"measurement": "Mean Injury Score, change with treatment", "setting": "[2]; vs saline control", "value": 18.2, "unit": "%"}, {"measurement": "Media Area, change with treatment", "setting": "[2]; vs saline control", "value": "−12.8", "unit": "%"}, {"measurement": "Neointimal Area, change with treatment", "setting": "[2]; vs saline control", "value": "−27.1", "unit": "%"}, {"measurement": "Neointimal Thickness, change with treatment", "setting": "[2]; vs saline control", "value": "−20.6", "unit": "%"}, {"measurement": "Percentage Stenosis, change with treatment", "setting": "[2]; vs saline control", "value": "−25.7", "unit": "%"}, {"measurement": "Decrease in neointimal area", "setting": "[2]; vs saline-treated stented rats", "value": 27, "unit": "%"}, {"measurement": "Decrease in neointimal thickness", "setting": "[2]; vs saline-treated stented rats", "value": 21, "unit": "%"}, {"measurement": "Decrease in percentage stenosis", "setting": "[2]; vs saline-treated stented rats", "value": 26, "unit": "%"}, {"measurement": "Relaxation on endothelium-independent vasodilator sodium nitrite", "setting": "[3]; sodium nitrite 10 mM, phenylephrine precontracted rings, vs sham and control", "value": "equal; also recorded: No differences"}, {"measurement": "Contraction on phenylephrine", "setting": "[3]; thoracic aortic rings, phenylephrine 1 mM, mean ± SEM", "value": "254±29", "unit": "μm"}]}
